Laboratory results: ChEMBL document CHEMBL4364241, “Developments in the anticancer activity of structurally modified curcumin: An up-to-date review” (Eur J Med Chem, 2019)

Assays:
SK-OV-3 [1] = test: Cytotoxicity against human SKOV3 Cells after 24 hrs by MTT assay; format: functional, cell-based; settings: SK-OV-3, 24 h
MGC-803 [2] = test: Cytotoxicity against human MGC803 cells; format: functional, cell-based
Bcap37 = test: Cytotoxicity against human Bcap37 cells; format: functional, cell-based
PC-3 [3] = test: Cytotoxicity against human PC3 cells; format: functional, cell-based
HT-29 [4] = test: Cytotoxicity against human HT-29 Cells; format: functional, cell-based
NIH3T3 = test: Cytotoxicity against mouse 3T3 Cells after 48 hrs by MTT assay; format: functional, cell-based; settings: NIH3T3, 48 h
HepG2 [5] = test: Cytotoxicity against human HepG2 Cells after 72 hrs by MTT assay; format: functional, cell-based; settings: HepG2, 72 h
HepG2 [6] = test: Cytotoxicity against human HepG2 Cells; format: functional, cell-based
AGS [7] = test: Cytotoxicity against human AGS Cells; format: functional, cell-based
A549 [8] = test: Cytotoxicity against human A549 Cells by MTT assay; format: functional, cell-based
SK-OV-3 [9] = test: Cytotoxicity against human SKOV3 Cells after 48 hrs by Cell Titer Blue assay; format: functional, cell-based; settings: SK-OV-3, 48 h
SGC-7901 [10] = test: Cytotoxicity against human SGC7901 cells; format: functional, cell-based
HCT-116 [11] = test: Growth inhibition of human HCT116 cells relative to control; format: functional
CHO-K1 = test: Cytotoxicity against […] Cells after 72 hrs by MTT assay; format: functional, cell-based; settings: Cricetulus griseus, CHO-K1, 72 h
[12] = Cytotoxicity against human LX2 Cells after 48 hrs by MTT assay; format: functional; settings: LX-2, 48 h
[13] = Cytotoxicity against human GBM2 Cells 48 hrs by MTS assay; format: functional; settings: GBM2, 48 h
MCF7 [14] = test: Induction of apoptosis in human MCF7 cells; format: functional, cell-based
MGC-803 [15] = test: Antiproliferative activity against human MGC803 cells after 24 hrs by MTT assay; format: functional, cell-based; settings: MGC-803, 24 h
L02 [16] = test: Cytotoxicity against human HL-7702 cells; format: functional, cell-based
AGS [17] = test: Cytotoxicity against human AGS Cells by MTT assay; format: functional, cell-based
SGC-7901 [18] = test: Antiproliferative activity against human SGC7901 cells after 24 hrs by MTT assay; format: functional, cell-based; settings: SGC-7901, 24 h
[19] = Cytotoxicity against human GBM5 Cells 48 hrs by MTS assay; format: functional
SW-620 = test: Cytotoxicity against human SW620 Cells; format: functional, cell-based
CT26 = test: Cytotoxicity against mouse CT26 cells; format: functional, cell-based
BGC-823 [20] = test: Cytotoxicity against human BGC823 cells; format: functional, cell-based
[21] = Cytotoxicity against human GBM3 Cells 48 hrs by MTS assay; format: functional; settings: GBM3, 48 h
HSC-2 = test: Cytotoxicity against human HSC2 cells; format: functional, cell-based
HT-29 [22] = test: Cytotoxicity against human HT-29 Cells after 72 hrs by MTT assay; format: functional, cell-based; settings: HT-29, 72 h
GES1 = test: Cytotoxicity against human GES-1 cells; format: functional, cell-based
U373 MG = test: Cytotoxicity against human U373MG Cells 48 hrs by MTS assay; format: functional, cell-based, U-373MG ATCC
SMMC-7721 = test: Anticancer activity against human SMMC7721 cells after 72 hrs by MTT assay; format: functional, cell-based; settings: SMMC-7721, 72 h
HEp-2 = test: Cytotoxicity against human Hep2 Cells; format: functional, cell-based
[23] = Cytotoxicity against mitoxantrone resistant […] cells expressing BCRP after 15 mins by fluorescence assay; format: functional, cell-based; settings: Canis lupus familiaris, MDCK2, 0.25 h
HSC-3 = test: Cytotoxicity against human HSC3 cells; format: functional, cell-based
HCT-116 [24] = test: Cytotoxicity against human HCT116 Cells; format: functional, cell-based
MCF7 [25] = test: Cytotoxicity against human MCF7 Cells after 48 hrs by MTS assay; format: functional, cell-based; settings: MCF7, 48 h
PC-3 [26] = test: Anticancer activity against human PC3 cells; format: functional, cell-based
A549 [27] = test: Cytotoxicity against human A549 Cells after 24 hrs by MTT assay; format: functional, cell-based; settings: A549, 24 h
HeLa [28] = test: Anticancer activity against human HeLa cells; format: functional, cell-based
MCF7 [29] = test: Cytotoxicity against human MCF7 cells; format: functional, cell-based
U-87 MG = test: Cytotoxicity against human U87MG Cells 48 hrs by MTS assay; format: functional, cell-based, U-87MG ATCC
HSC-4 = test: Cytotoxicity against human HSC4 cells; format: functional, cell-based
HepG2 [30] = test: Cytotoxicity against human HepG2 Cells after 48 hrs by MTT assay; format: functional, cell-based; settings: HepG2, 48 h
NCI-H1299 = test: Cytotoxicity against human H1299 cells; format: functional, cell-based
MDA-MB-231 [31] = test: Anticancer activity against human MDA-MB-231 cells after 72 hrs by MTT assay; format: functional, cell-based; settings: MDA-MB-231, 72 h
[32] = Cytotoxicity against human CCD-1059SK Cells after 48 hrs by MTS assay; format: functional
Caco-2 = test: Cytotoxicity against human Caco2 Cells after 72 hrs by MTT assay; format: functional, cell-based; settings: Caco-2, 72 h
DU-145 = test: Anticancer activity against human DU145 cells; format: functional, cell-based
A549 [33] = test: Cytotoxicity against human A549 Cells after 24 to 48 hrs by MTT assay; format: functional, cell-based
SW480 = test: Cytotoxicity against human SW480 Cells after 24 to 48 hrs by MTT assay; format: functional, cell-based
RWPE-1 = test: Cytotoxicity against human RWPE1 cells; format: functional, cell-based
[34] = Cytotoxicity against human GBM4 Cells 48 hrs by MTS assay; format: functional
BGC-823 [35] = test: Antiproliferative activity against human BGC823 cells after 24 hrs by MTT assay; format: functional, cell-based; settings: BGC-823, 24 h
[36] = Cytotoxicity against human GBM1 Cells 48 hrs by MTS assay; format: functional; settings: GBM1, 48 h
BXPC-3 = test: Cytotoxicity against human BxPC3 cells; format: functional, cell-based
MCF7 [37] = test: Cytotoxicity against human MCF7 Cells after 48 hrs by MTT assay; format: functional, cell-based; settings: MCF7, 48 h
K562 [38] = test: Cytotoxicity against human K562 Cells after 24 to 48 hrs by MTT assay; format: functional, cell-based
KBM5 = test: Growth inhibition of human KBM5 cells relative to control; format: functional
[39] = Cytotoxicity against human GBM6 Cells 48 hrs by MTS assay; format: functional; settings: GBM6, 48 h
U-251 = test: Cytotoxicity against human U251MG cells after 48 hrs by MTS assay; format: functional, cell-based; settings: U-251, 48 h
HL-60 = test: Cytotoxicity against human HL60 cells; format: functional, cell-based
MDA-MB-231 [40] = test: Cytotoxicity against human MDA-MB-231 cells; format: functional, cell-based
[41] = Anticancer activity against human LX2 cells after 72 hrs by MTT assay; format: functional, cell-based; settings: LX-2, 72 h
EA.hy 926 = test: Cytotoxicity against human EAhy926 Cells after 72 hrs by MTT assay; format: functional, cell-based; settings: EA.hy 926, 72 h
HeLa [42] = test: Cytotoxicity against human HeLa Cells; format: functional, cell-based
HepG2 [43] = test: Cytotoxicity against human HepG2 Cells by MTT/Trypan Blue Exclusion Assay; format: functional, cell-based
L02 [44] = test: Cytotoxicity against human LO2 Cells; format: functional, cell-based
THP-1 = test: Cytotoxicity against human THP1 Cells; format: functional, cell-based
K562 [45] = test: Antiproliferative activity against human K562 Cells; format: functional, cell-based

`COc1cc(/C=C/C2=NN(c3nc(/N=C4/CC[C@H]5[C@@H]6CC[C@H]7C[C@@H](OC(C)=O)CC[C@]7(C)[C@H]6CC[C@]45C)cc(=O)[nH]3)C(/C=C/c3cc(OC)cc(OC)c3)C2)cc(OC)c1` (stereo partly drawn) showed an IC50 (SK-OV-3 [1]) of 2.5 µM.
In the case of `Cc1ccc2ncnc(Oc3ccccc3/C=C/C(=O)/C=C/c3c(Cl)cccc3Cl)c2c1`, the IC50 (MGC-803 [2]) is reported as 0.85 µM, the IC50 (Bcap37) is reported as 4.98 µM and the IC50 (PC-3 [3]) is reported as 1.37 µM.
`COc1cc(/C=C/C(=O)CC(=O)/C=C/c2ccc(O)c(OC)c2)ccc1O` [CURCUMIN] gave an IC50 (HT-29 [4]) of 18.7 to 66.9 µM, an IC50 (NIH3T3) of 9.51 µM and an IC50 (HepG2 [5]) of 20.3 to 24.9 µM. It also gave an IC50 (HepG2 [6]) of 36.8 µM, an IC50 (AGS [7]) of 9.77 µM and an IC50 (A549 [8]) of 25.3 µM. The IC50 (MGC-803 [2]) was 21.2 µM, the IC50 (SK-OV-3 [9]) was 6.7 µM and the IC50 (SGC-7901 [10]) was 22.5 µM. For the same molecule, the “growth inhibition (GI)” value (HCT-116 [11]) was 46.87%, the IC50 (CHO-K1) was 21.3 µM and the IC50 [12] was 9.14 µM. The IC50 [13] was over 50 µM, the IC50 (MCF7 [14]) was 17.1 µM and the IC50 (MGC-803 [15]) was over 20 µM. The IC50 (L02 [16]) was 32.3 µM, the IC50 (AGS [17]) was 20.8 µM and the IC50 (SGC-7901 [18]) was over 20 µM. The IC50 [19] was over 50 µM, the IC50 (SW-620) was over 50 µM and the IC50 (CT26) was over 20 µM. For the same molecule, the IC50 (BGC-823 [20]) was 17.5 µM, the IC50 [21] was over 50 µM and the IC50 (HSC-2) was 7.8 µM. It also gave an IC50 (HT-29 [22]) of 23.4 µM, an IC50 (GES1) of 29.1 µM and an IC50 (U373 MG) of over 50 µM. For the same molecule, the IC50 (SMMC-7721) was 12.6 µM, the IC50 (HEp-2) was 21.4 µM and the IC50 [23] was 32 µM. For the same molecule, the IC50 (HSC-3) was 11 µM, the IC50 (HCT-116 [24]) was 5.51 to 20 µM and the IC50 (MCF7 [25]) was 68.2 µM. It also gave an IC50 (PC-3 [26]) of 20.9 µM, an IC50 (A549 [27]) of 52.3 µM and an IC50 (HeLa [28]) of 4.33 µM. It also gave an IC50 (MCF7 [29]) of 22.5 µM, an IC50 (U-87 MG) of 7.15 µM and an IC50 (HSC-4) of 7.1 µM. For the same molecule, the IC50 (HepG2 [30]) was 9.44 µM, the IC50 (NCI-H1299) was 18.9 µM and the IC50 (MDA-MB-231 [31]) was 11.5 µM. It also gave an IC50 [32] of 133 µM, an IC50 (Caco-2) of 28 µM and an IC50 (DU-145) of 31.7 µM. It also gave an IC50 (A549 [33]) of 28 to 30 µM, an IC50 (SW480) of 15 to 17 µM and an IC50 (RWPE-1) of 15.6 µM. For the same molecule, the IC50 [34] was over 50 µM, the IC50 (BGC-823 [35]) was over 20 µM and the IC50 [36] was 39.6 µM. It also gave an IC50 (BXPC-3) of 18.2 µM, an IC50 (MCF7 [37]) of 9.28 µM and an IC50 (K562 [38]) of 36 to 38 µM. For the same molecule, the “growth inhibition (GI)” value (KBM5) was 46%, the IC50 [39] was over 50 µM and the IC50 (U-251) was 15.3 µM. For the same molecule, the IC50 (HL-60) was 6.3 µM, the IC50 (PC-3 [3]) was 20 µM and the IC50 (MDA-MB-231 [40]) was 26.5 µM. For the same molecule, the IC50 [41] was 14 µM, the IC50 (EA.hy 926) was 20 µM and the IC50 (HeLa [42]) was 14 to 22.2 µM.
For `COc1cccc2c1C(=O)c1c(O)c3c(c(O)c1C2=O)C[C@@](O)(C(=O)CO)C[C@@H]3O[C@H]1C[C@H](N)[C@H](O)[C@H](C)O1` [DOXORUBICIN], the IC50 (HepG2 [43]) was 14.7 µM, the IC50 (HepG2 [6]) was 0.57 µM and the IC50 (L02 [44]) was 6.93 µM. For the same molecule, the IC50 (THP-1) was 0.3 µM, the IC50 (K562 [45]) was 1.42 µM and the IC50 (HeLa [42]) was 2.02 µM.
